From patent publication US12077503B2, “Substituted cyclic amides and their use as herbicides” (FMC CORPORATION, priority 2015, dated 2024)

Tests used:
Type in all cases: in vivo
[1] = test system: giant foxtail (Setaria faberii); assay: Test A postemergence; conditions: Setaria faberi, post-emergence, 240 h, 125 g ai/ha, postemergence; visual injury after approximately 10 d; 0 to 100 scale (0 no effect, 100 complete control); read-out: Plant response rating, Foxtail, Giant
How it was run: (§1)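 Visual injury, scored on a 0–100 scale relative to untreated controls, was recorded about 10 d after application. Treatments were a preemergence soil spray over planted seeds or a postemergence spray on plants at the one- to two-leaf stage, 2 to 10 cm tall, all in loam soil–sand blend in the greenhouse.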

Kochia (Kochia scoparia) [2] = assay: Test A postemergence; conditions: Bassia scoparia, post-emergence, 240 h, 125 g ai/ha, postemergence; visual injury after approximately 10 d; 0 to 100 scale (0 no effect, 100 complete control); read-out: Plant response rating, Kochia
How it was run: as §1

[3] = test system: barnyardgrass (Echinochloa crus-galli); assay: Test A postemergence; conditions: Echinochloa crus-galli, post-emergence, 240 h, 125 g ai/ha, postemergence; visual injury after approximately 10 d; 0 to 100 scale (0 no effect, 100 complete control); read-out: Plant response rating, Barnyardgrass
How it was run: as §1

[4] = test system: pigweed (Amaranthus retroflexus); assay: Test A postemergence; conditions: Amaranthus retroflexus, post-emergence, 240 h, 125 g ai/ha, postemergence; visual injury after approximately 10 d; 0 to 100 scale (0 no effect, 100 complete control); read-out: Plant response rating, Pigweed
How it was run: as §1

[5] = test system: ragweed (common ragweed, Ambrosia elatior); assay: Test A postemergence; conditions: Ambrosia artemisiifolia, post-emergence, 240 h, 125 g ai/ha, postemergence; visual injury after approximately 10 d; 0 to 100 scale (0 no effect, 100 complete control); read-out: Plant response rating, Ragweed
How it was run: as §1

[6] = test system: blackgrass (Alopecurus myosuroides); assay: Test A postemergence; conditions: Alopecurus myosuroides, post-emergence, 240 h, 125 g ai/ha, postemergence; visual injury after approximately 10 d; 0 to 100 scale (0 no effect, 100 complete control); read-out: Plant response rating, Blackgrass
How it was run: as §1

[7] = test system: wheat (Triticum aestivum); assay: Test A postemergence; conditions: Triticum aestivum, post-emergence, 240 h, 125 g ai/ha, postemergence; visual injury after approximately 10 d; 0 to 100 scale (0 no effect, 100 complete control); read-out: Plant response rating, Wheat
How it was run: as §1

corn (Zea mays) = assay: Test A postemergence; conditions: Zea mays, post-emergence, 240 h, 125 g ai/ha, postemergence; visual injury after approximately 10 d; 0 to 100 scale (0 no effect, 100 complete control)
How it was run: as §1

[8] = test system: Galium (catchweed bedstraw, Galium aparine); assay: Test A postemergence; conditions: Galium, post-emergence, 240 h, 125 g ai/ha, postemergence; visual injury after approximately 10 d; 0 to 100 scale (0 no effect, 100 complete control); read-out: Plant response rating, Galium
How it was run: as §1

[9] = test system: giant foxtail (Setaria faberii); assay: Test A preemergence; conditions: Setaria faberi, pre-emergence, 240 h, preemergence, read-out: Plant response rating, Foxtail, Giant; for pest or weed control at 125 g/ha: 125 g ai/ha, visual rating after approx. 10 d, 0 to 100 scale where 0 is no effect and 100 is complete control; for pest or weed control at 500 g/ha: 500 g ai/ha, 0 to 100 scale, 0 = no effect, 100 = complete control
How it was run: as §1

Kochia (Kochia scoparia) [10] = assay: Test A preemergence; conditions: Bassia scoparia, pre-emergence, 240 h, preemergence, read-out: Plant response rating, Kochia; for pest or weed control at 125 g/ha: 125 g ai/ha, visual rating after approx. 10 d, 0 to 100 scale where 0 is no effect and 100 is complete control; for pest or weed control at 500 g/ha: 500 g ai/ha, 0 to 100 scale, 0 = no effect, 100 = complete control
How it was run: as §1

[11] = test system: barnyardgrass (Echinochloa crus-galli); assay: Test A preemergence; conditions: Echinochloa crus-galli, pre-emergence, 240 h, preemergence, read-out: Plant response rating, Barnyardgrass; for pest or weed control at 125 g/ha: 125 g ai/ha, visual rating after approx. 10 d, 0 to 100 scale where 0 is no effect and 100 is complete control; for pest or weed control at 500 g/ha: 500 g ai/ha, 0 to 100 scale, 0 = no effect, 100 = complete control
How it was run: as §1

[12] = test system: pigweed (Amaranthus retroflexus); assay: Test A preemergence; conditions: Amaranthus retroflexus, pre-emergence, 240 h, preemergence, read-out: Plant response rating, Pigweed; for pest or weed control at 125 g/ha: 125 g ai/ha, visual rating after approx. 10 d, 0 to 100 scale where 0 is no effect and 100 is complete control; for pest or weed control at 500 g/ha: 500 g ai/ha, 0 to 100 scale, 0 = no effect, 100 = complete control
[13] = test system: ragweed (common ragweed, Ambrosia elatior); assay: Test A preemergence; conditions: Ambrosia artemisiifolia, pre-emergence, 240 h, preemergence, read-out: Plant response rating, Ragweed; for pest or weed control at 125 g/ha: 125 g ai/ha, visual rating after approx. 10 d, 0 to 100 scale where 0 is no effect and 100 is complete control; for pest or weed control at 500 g/ha: 500 g ai/ha, 0 to 100 scale, 0 = no effect, 100 = complete control
How it was run: as §1

[14] = test system: ryegrass, Italian (Italian ryegrass, Lolium multiflorum); assay: Test A preemergence; conditions: Lolium multiflorum, pre-emergence, 240 h, preemergence, read-out: Plant response rating, Ryegrass, Italian; for pest or weed control at 125 g/ha: 125 g ai/ha, visual rating after approx. 10 d, 0 to 100 scale where 0 is no effect and 100 is complete control; for pest or weed control at 500 g/ha: 500 g ai/ha, 0 to 100 scale, 0 = no effect, 100 = complete control
How it was run: as §1

SMILES | pest or weed control at 125 g/ha [1] | pest or weed control at 125 g/ha (Kochia (Kochia scoparia) [2]) | pest or weed control at 125 g/ha [3] | pest or weed control at 125 g/ha [4] | pest or weed control at 125 g/ha [5] | pest or weed control at 125 g/ha [6] | plant injury at 125 g/ha [7] | Corn plant response rating (crop injury, 0 = no effect, 100 = complete kill) at 125 g/ha (corn (Zea mays)) | pest or weed control at 125 g/ha [8] | pest or weed control at 125 g/ha [9] | pest or weed control at 500 g/ha [9] | pest or weed control at 125 g/ha (Kochia (Kochia scoparia) [10]) | pest or weed control at 125 g/ha [11] | pest or weed control at 500 g/ha [11] | pest or weed control at 125 g/ha [12] | pest or weed control at 500 g/ha [12] | pest or weed control at 125 g/ha [13] | pest or weed control at 500 g/ha [13] | pest or weed control at 125 g/ha [14] | pest or weed control at 500 g/ha [14] | also measured
Cc1ccc([C@H]2CN(C)C(=O)[C@@H]2C(=O)Nc2cccc(F)c2F)c(F)c1 [Compound 730] | 90% | 70% | 100% | 20% | 20% | 50% | 30% | 20% | 50% | 90% | 100% | 70% | 90% | 100% | 30% | 50% | 50% | 60% | 20% | 70% | pest or weed control at 500 g/ha (Kochia (Kochia scoparia) [10]): 80%
O=C1NC[C@H](c2ccc(C3CC3)cc2)[C@H]1C(=O)Nc1ccccc1F [Compound 727] | 40% | 0% | 80% | 0% | 0% | 30% | 0% | 0% | 0% | 80% | 90% | 0% | 70% | 90% | 0% | 0% | 0% | 0% | 0% | 0% | pest or weed control at 500 g/ha (Kochia (Kochia scoparia) [10]): 0%
O=C1NC[C@H](c2csc3ccccc23)[C@H]1C(=O)Nc1cccc(F)c1F [Compound 751] | 30% | 0% | 60% | 0% | 0% | 20% | 0% | 0% | 40% | 80% | 90% | 20% | 90% | 90% | 0% | 0% | 20% | 40% | 0% | 20% | 
